Patent US12698534B2, “Systems and methods for characterizing and treating disease” (Arizona Board of Regents on Behalf of the University of …, priority 2019, dated 2026)

What was measured:
[1] = tested on: L1-ORF1p; assay: L1-ORF1p expression by immunoblotting in lung cells treated with NCL antagonists; format: cell-based, human
Description: Cell lines were purchased from the American Type Culture Collection (ATCC). Cells were grown in a humidified environment at 37° C. with 5% CO2. Cell lines were confirmed to be free of mycoplasma contamination (MycoAlert; Lonza). NSCLC cell lines (NCI-H460, NCI-H520, NCI-H1299, and A549) were grown in RPMI medium supplemented with fetal bovine serum at a concentration of 10%, […] penicillin and […] streptomycin (Life Technologies). The human bronchial epithelial cell lines BEAS-2B and BZR were grown in LHC-9 medium (Thermo Fisher Scientific). Verification of all cell line identities was performed by short tandem repeat (STR) sequencing using reference databases from ATCC (Genetics Core, University of Arizona, AZ). […] All protein concentrations were determined using the bicinchoninic acid assay (Thermo Fisher Scientific).
Total cell lysates were resolved by SDS-polyacrylamide gel electrophoresis and electrotransferred onto polyvinylidene fluoride membranes (Millipore) in Tris-glycine buffer containing 20% methanol. Proteins were detected by immunoblotting. […]

[2] = tested on: H460 large cell lung cancer cells; assay: Exosome quantity and size by Nanosight NTA after BaP exposure; format: cell-based, Human; set-up: number of exosomes released per cell: dose or concentration left out as unconfirmed
Source text: (§1) Human 460 large cell lung carcinoma cells were authenticated by the UA tissue culture core facility and then cultured in RPMI media (Gibco) supplemented with 10% exosome-free FBS. One day before exposure, cells were counted, seeded, and allowed to attach overnight. Prior to each exposure, medium was removed and cells were washed with PBS to remove cellular debris and extracellular vesicles. After exposure, culture medium was harvested for exosome collection, cells were detached with trypsin-EDTA (Gibco), counted via hemocytometer, and cell viability was assessed using trypan blue exclusion.
Cell media was centrifuged at 500×g for 5 minutes to remove cells and large debris and then stored at −80° C. To isolate exosomes, cell medium was centrifuged at 25,000×g for 1.5 hours to remove apoptotic bodies and other large extracellular vesicles. To precipitate exosomes, polyethylene glycol (PEG) MW 6,000 was added to the supernatant to a final concentration of 10% (w/v), and centrifuged again at 15,000×g for 30 minutes. Each exosome pellet was resuspended in 2 mL PBS, which was then subdivided into fractions for Nanosight Nanoparticle Tracking Analysis (NTA), nucleic acid extraction, and protein extraction. Nucleic acids and proteins present outside of exosomes were enzymatically digested to prevent confounding of exosome cargo analysis. Exosome fractions designated for nucleic acid analysis were treated with DNAseI for 30 minutes at 37° C. and RNAseA for 5 minutes at RT and then supplemented with RNA Secure (Invitrogen) prior to lysis. Exosome fractions designated for protein analysis were treated with proteinaseK for 30 minutes at 37° C. Following enzymatic digestion, exosomes were pelleted a final time by addition of PEG 6,000 to 10%, and centrifugation at 15,000×g for 15 minutes. To assess exosome size and quantity, Nanosight NTA was performed. Each sample was read five times and the sample grand mean and standard error for each nanoparticle size bin were reported. Nanosight experiments were performed in technical duplicate. […]

[3] = tested on: ORFeus^LSL transgene (human LINE-1); assay: ORFeus LINE-1 mRNA by RT-qPCR in mouse tissues; format: in vivo, mice
Description: (§2) A BioLite Intubation System (Braintree Scientific Inc, USA) was used for intratracheal instillation of ORFeus^LSL mice (29-38 g) anesthetized with ketamine and xylazine (100 mg/kg and 10 mg/kg, respectively). All mice were genotyped to confirm genetic identity. Control mice were given one dose of 5×10^10 PFU adenoCRE recombinase dissolved in H2O or DMSO. […] Mice were sacrificed by cervical dislocation after euthanasia with CO2 one-week after treatment. Tissues were collected and stored at 4° C. in RNA later (Thermo Fisher Scientific, CA).
RNA was extracted using the RNeasy Plus Mini Kit (Qiagen, MD). An aliquot of 250 ng RNA was reverse transcribed into first-strand cDNA using SuperScript® III (Invitrogen, CA). RT-qPCR was carried out for LINE-1 and nine genes within its oncogenic regulatory network. […] GAPDH was used as a control. Each reaction included 4.0 μL of cDNA, 0.5 μL of gene-specific primer pairs, and 5.0 μL SyberGreen dye and ddH2O to a final volume of 20 μL. Amplifications were completed using StepOnePlus™ RT-qPCR System and fold changes calculated using 2^−ΔΔct.

[4] = tested on: Human 460 large cell lung carcinoma cells; assay: BaP exposure of H460 cells: cell count and trypan blue viability; format: cell-based; conditions: for cell number at conclusion of exposure, mean (±SEM): 48 hour
Source text: as §1

[5] = tested on: LINE-1 mRNA; assay: LINE-1 mRNA and RNA in cells and exosomes by RT-qPCR; format: cell-based, Human; conditions: H460 exosomes
Source text: as §1
(§3) Nucleic acids were extracted from cell and exosome pellets using the Quick DNA-RNA Miniprep Plus. RNA was subjected to an additional DNAseI digestion on-column (RNA from cells) or prior to reverse transcription (RNA from exosomes; Turbo DNA-free; Invitrogen). Following isolation DNA and RNA quantity and integrity were assessed using the Cytation X system. LINE-1 mRNA was detected in equal volumes of exosome RNA using OneStep RT-qPCR (NEB). To assess cellular LINE-1 mRNA levels, LINE-1 mRNA was normalized to B-Actin mRNA and expressed as a fold change from control using the Pfaffl technique. […] Briefly, the fluorescence units from the reverse transcription control (RTC; no reverse transcriptase enzyme) for each sample was subtracted from the complete sample amplification and the remaining fluorescence units were divided by cell number. The resulting values approximate the amount of LINE-1 or BActin mRNA present in exosomes that is also normalized by cell number. LINE-1 DNA copies were quantified using absolute qPCR quantification. Briefly, known copy numbers of plasmids bearing the LINE-1 sequence were used to create a standard curve, which could then be used to calculated copy number from samples. These copy numbers were then divided by cell number to yield the number of LINE-1 DNA copies per cell (cellular DNA) and the number of exosome LINE-1 DNA copies per cell (exosome DNA).

[6] = tested on: LINE-1 DNA; assay: LINE-1 DNA copies in cells and exosomes by absolute qPCR; format: cell-based, Human; conditions: for exosome LINE-1 DNA copies released per cell, mean (±SE): H460 exosomes
Source text: as §1, §3

[7] = tested on: Lung tissues in ORFeus^LSL mice; assay: Lung histology and general toxicity after intratracheal instillation; format: in vivo
Description: as §2, with “DMSO. The optimal adenovirus dose was defined empirically as a dose that only modestly activated the transgene.” for “DMSO.”
Lung sections were snap-frozen in OCT. Tissues were fixed with cold acetone and stained with hematoxylin and eosin. Samples were evaluated blindly by two pathologists.

[8] = tested on: LINE-1; assay: LINE-1 mRNA and ORF1p in extracellular vesicles of BaP-stimulated H460 cells; format: cell-based, human; conditions: 48 h, various concentrations
Description: EV isolation: Media were centrifuged at 500×g for 5 min to remove cells and concentrated using a 100 kDa MWCO Amicon filter. Samples were then centrifuged at 25,000×g for 30 min to pellet apoptotic vesicles and cellular debris followed by ultracentrifugation at 100,000×g for 2 h. The EV pellet was washed in PBS and either re-centrifuged at 100,000×g or loaded onto an iodixanol gradient.
Total RNA was harvested (Zymo) and subjected to post-elution DNAse digestion. A cDNA was created using oligo d (T) primers. Gene expression analysis was performed via qPCR using probe-based detection. Expression was expressed as a fold change from the EV-free medium (EFM).

[9] = target: the molecule itself; assay: Western blot of EV iodixanol gradient fractions (self-association)

5′-GGTGGTGGTGGTTGTGGTGGTGGTGG-3′ (SEQ ID NO:2) (DNA, backbone not given here) [AS1411, oligodeoxynucleotide DNA aptamer targeting nucleolin]
L1-ORF1p protein expression ([1]; NCI-H520 cells, high concentrations (20 μM)): without effect | L1-ORF1p protein expression ([1]; any of the cell lines (data not shown)): without effect

c1ccc2c(c1)cc1ccc3cccc4ccc2c1c34 [BaP, benzo[a]pyrene]
size range in which more exosomes were produced ([2]; 0.25 μM): 64.5 to 71.5 nM | size range in which more exosomes were produced ([2]; 1 μM): 61.5 to 77.5 nM | number of exosomes released per cell ([2]; particles 30-150 nm normalized to cell number): increased | ORFeus LINE-1 mRNA expression in lung ([3]; male and female lungs, one week after treatment): significantly increased expression of the transgene | activation of the LINE-1 transgene in other tissues ([3]; stomach, heart, kidney, liver, intestine): only stomach, but not heart, kidney, liver or intestine, showed activation of the LINE-1 transgene | cell proliferation ([4]; 48 hour exposure): reduce cell proliferation in a dose-dependent manner | cell number at conclusion of exposure, mean (±SEM) ([4]; 0.5 μM): 14.0±2.3 million cells | cell number at conclusion of exposure, mean (±SEM) ([4]; 1 μM): 11.1±1.9 million cells | exosome LINE-1 mRNA, Pfaffl method normalized to B-Actin mRNA [5]: did not observe significant increases | LINE-1 mRNA export in exosomes per cell ([5]; 0.25 μM): approximately two-fold | LINE-1 mRNA export in exosomes per cell ([5]; 0.5 μM): approximately two-fold | LINE-1 mRNA export in exosomes per cell ([5]; 1 μM): decreased export | quantity of total exosome RNA ([5]; 1 μM): 83.26 ± 16.94 ng | exosome B-Actin mRNA released per cell ([5]; fluorescence units adjusted by cell number): dose-dependent increases | cellular LINE-1 DNA copies per cell ([6]; H460 cells): did not significantly change | exosome LINE-1 DNA copies released per cell, mean (±SE) ([6]; 0.25 μM): 61.04±31.3 copies | exosome LINE-1 DNA copies released per cell, mean (±SE) ([6]; 0.5 μM): 62.43±28.98 copies | exosome LINE-1 DNA copies released per cell, mean (±SE) ([6]; 1 μM): 85.96±51.21 copies | toxic effects in treated mice ([7]; ORFeus^LSL mice, at any time): No dramatic toxic effects | lung histology: leukocytic infiltration ([7]; mouse, in vivo): significant leukocytic infiltration into the lungs | lung histology: vessel congestion and mononuclear cell infiltration ([7]; mouse, in vivo): pulmonary vessel congestion with focal-to-diffuse mononuclear cell infiltration into parenchyma | EV LINE-1 levels versus cellular LINE-1 levels [8]: mirrored within EVs

B1: human LINE-1 ORF1 protein (L1-ORF1p) (other, UniProt Q9UN81 1-338, looked up)
chain: MGKKQNRKTGNSKTQSASPPPKERSSSPATEQSWMENDFDELREEGFRRSNYSELREDIQTKGKEVENFEKNLEECITRITNTEKCLKELMELKTKARELREECRSLRSRCDQLEERVSAMEDEMNEMKREGKFREKRIKRNEQSLQEIWDYVKRPNLRLIGVPESDVENGTKLENTLQDIIQENFPNLARQANVQIQEIQRTPQRYSSRRATPRHIIVRFTKVEMKEKMLRAAREKGRVTLKGKPIRLTADLSAETLQARREWGPIFNILKEKNFQPRISYPAKLSFISEGEIKYFIDKQMLRDFVTTRPALKELLKEALNMERNNRYQPLQNHAKM
notes: Endogenous protein detected on Western blots of human cell lysates and EV extracts; Seen as a monomer, a dimer and higher multimers
binding result [9]: binds
